Measured values from patent EP0414895A1, “OROTATE OF $g(a)-AMINO-$g(b)-PHENYL-BUTYRIC ACID” (NAUCHNO-PROIZVODSTVENNOE OBIEDINENIE "BIOLAR", priority 1989, dated 1990).

Tests used:
Mäuse [1] = assay: Anticonvulsant effect against Pikrotoxin, Bicucullin, Korazol, Thiosemikarbazid; format: in vivo
Text: Ausserdem wurde die krampflösende Wirkung der neuen Verbindung untersucht. Die Untersuchung wurde an männlichen weissen Mäusen bei der Einführung von Pikrotoxin, Bicucullin, Korazol, Thiosemikarbazid durchgeführt.

Mäuse [2] = assay: Phenamin-induced hypermotility in actometer; format: in vivo
Procedure: Eis wurde die Wirkung der beanspruchten Verbindung auf den durch Phenamin ausgelöston Effekt der Veränderung der Hypermotorik untersucht. Phenamin wurde den Mäusen intraperitoneal in Dosen von 3 und 5 mg/kg I0 Minuten nach der enteralen oder intraperitonealen Einführung der beanspruchten Verbindung und des Pyrazetams eingeführt. Die Tiere wurden in der Kammer des photoelektrischen Aktometers untergebracht. Die motorische Aktivität wurde nach der Zahl der Impulse innerhalb von 60 Minuten bestimmt. Die Angaben sind in der Tabelle 6 angeführt.

Ratten [3] = assay: Habituation study over 6 months: motor activity of rats in actometer; format: in vivo
Text: Das Ausbleiben der Gewöhnung an die beanspruchte Verbindung wurde auch in den Rattenversuchen festgestellt, die im Laufe von 6 Monaten zur Bestimmung der motorischen Aktivität der Ratten durchgeführt wurden.

Ratten [4] = assay: Swimming test at 25°C; format: in vivo; conditions: 50,0 mg/kg
Text: Der Einfluss der beanspruchten Verbindung auf die physische Toleranz der Tiere wurde nach dem Schwimmtest der Mäuse und Ratten untersucht. Die Versuche wurden in einer Wanne von […] Fläche durchgeführt. Die Tiergruppe (8 bis I0 Mäuse oder Ratten) wurde ins Wasser gebracht und es wurde die Zeit der Schwimmfähigkeit bestimmt. Die neue Verbindung und γ -Amino- β - -phenylbuttersäurehydrochlorid wurden enteral und intraperitoneal I Stunde oder 3 Stunden vor dem Schwimmbeginn eingeführt. Die Untersuchung wurde sowohl nach der einmaligen als auch nach der chronischen (innerhalb von 20 Tagen einmal täglich) Einführung der genannten Verbindungen durchgeführt. Die Versuche wurden bei 3 Temperaturen angestellt: 2°C (Tabelle I7), 25°C (Tabelle I8) und 40°C (Tabelle I9).

Mäuse [5] = assay: Ethanol intoxication, survival; format: in vivo
Text: Es wurde auch der Einfluss der erfindungsgemässen Verbindung auf die durch Athanol erzeugte Intoxikation untersucht. In den Versuchen an Mäusen (in jedem Versuch wurde eine Gruppe von I0 Tieren untersucht) wurde die Überlebensdauer der Tiere bestimmt. […] Athanol wurde I Stunde nach der Einführung der neuen Verbindung verabreicht. Die Ergebnisse dieser Untersuchung sind in der Tabelle 2 dargestellt.

Mäuse [6] = assay: Strophantin toxicity (arrhythmia), time to death; format: in vivo
Text: Unter Berücksichtigung der Tatsache, dass einige Verbindungen, die ähnlich mit der erfindungsgemässen Verbindung eine sedative Wirkung besitzen, als symptomatische Mittel zur Behandlung von verschiedenen Arrhythmienarten angewendet werden können, wurde der Einfluss der erfindungsgemässen Verbindung auf die toxischen Strophantin-Effekte geprüft, die mit der Herzrhythmusstörung verbunden sind. Dazu wurde bei weissen Mäusen (die Gruppe aus I0 Tieren) die Zeit des Todeseintritts bei der intravenösen Einführung von Strophantin (0,0I%ige wässrige Lösung) im einzelnen und in Kombination mit der neuen Verbindung und mit γ -Amino--β -phenylbuttersäurehydrochlorid bestimmt. Die Ergebnisse dieser Versuche sind in der Tabelle 25 angeführt.

Mäuse [7] = assay: Acute toxicity, mice; format: in vivo
Procedure: (§1) Die akute Toxizität der beanspruchten Verbindung wurde an Mäusen und Ratten (die Gruppe aus 9 bis I2 Tieren) bei der intravenösen, intraperitonealen Einführung der beanspruchten Verbindung sowie bei deren Einführung in den Magen bestimmt.
(§2) Es wurden der letale Ausgang, der Allgemeinzustand, die Vergiftungssymptome registriert. LD₅₀ wurde nach der Methode von Lichtfield und Wilcoxon bestimmt. LD₅₀ der neuen Verbindung beträgt für Mäuse bei der intravenösen Einführung 580 mg/kg, bei der intraperitonealen Einführung I450 mg/kg, bei der Einführung in den Magen 4600 mg/kg; für Ratten bei der intraperitonealen Einführung beträgt LD₅₀ 883 mg/kg, bei der Einführung in den Magen - über I500 mg/kg.

Ratten [8] = assay: Acute toxicity, rats; format: in vivo; conditions: intraperitoneal
Procedure: as §1, §2

[9] = Storage stability (description of the substance); format: physicochemical
[10] = male white mice, convulsants Pikrotoxin, Bicucullin, Korazol, Thiosemikarbazid

γ -Amino- β -phenylbuttersäureorotat [Erfindungsgemässe Verbindung]
krampflösende Wirksamkeit (Mäuse [1]; Dosen von 50 bis 200 mg/kg): keine ausgeprägte krampflösende Wirksamkeit
Anteil von Tieren, bei denen der Krampf beobachtet wurde (Mäuse [1]; [10]): verringert nicht
Krampflatenzzeit (Mäuse [1]; [10]): verlängert sicher
Anzahl der Impulse im Aktometer innerhalb von 60 min (Mäuse [2]; 50 mg/kg + Phenamin 5 mg/kg i.p. 10 min later): 1884±111
Anzahl der Impulse im Aktometer innerhalb von 60 min (Mäuse [2]; 75 mg/kg + Phenamin 5 mg/kg i.p. 10 min later): 1125±141
Anzahl der Impulse im Aktometer innerhalb von 60 min (Mäuse [2]; 100 mg/kg + Phenamin 5 mg/kg i.p. 10 min later): 812±62
Anzahl der Impulse im Aktometer innerhalb von 60 min (Mäuse [2]; 150 mg/kg + Phenamin 5 mg/kg i.p. 10 min later): 811±98
Zahl der Impulse im Aktometer innerhalb von 30 min (Ratten [3]; day 1, 25 mg/kg): 183±24
Zahl der Impulse im Aktometer innerhalb von 30 min (Ratten [3]; day 1, 75 mg/kg): 111±13
Zahl der Impulse im Aktometer innerhalb von 30 min (Ratten [3]; day 1, 200 mg/kg): 15±16
Zahl der Impulse im Aktometer innerhalb von 30 min (Ratten [3]; day 35, 25 mg/kg): 171±18
Zahl der Impulse im Aktometer innerhalb von 30 min (Ratten [3]; day 35, 75 mg/kg): 129±14
Zahl der Impulse im Aktometer innerhalb von 30 min (Ratten [3]; day 35, 200 mg/kg): 64±18
Zahl der Impulse im Aktometer innerhalb von 30 min (Ratten [3]; day 70, 25 mg/kg): 126±27
Zahl der Impulse im Aktometer innerhalb von 30 min (Ratten [3]; day 70, 75 mg/kg): 81±13
Zahl der Impulse im Aktometer innerhalb von 30 min (Ratten [3]; day 70, 200 mg/kg): 43±15
Zahl der Impulse im Aktometer innerhalb von 30 min (Ratten [3]; day 85, 25 mg/kg): 147±19
Zahl der Impulse im Aktometer innerhalb von 30 min (Ratten [3]; day 85, 75 mg/kg): 109±17
Zahl der Impulse im Aktometer innerhalb von 30 min (Ratten [3]; day 85, 200 mg/kg): 67±21
Zahl der Impulse im Aktometer innerhalb von 30 min (Ratten [3]; day 107, 25 mg/kg): 138±20
Zahl der Impulse im Aktometer innerhalb von 30 min (Ratten [3]; day 107, 75 mg/kg): 137±14
Zahl der Impulse im Aktometer innerhalb von 30 min (Ratten [3]; day 107, 200 mg/kg): 79±17
Zahl der Impulse im Aktometer innerhalb von 30 min (Ratten [3]; day 120, 25 mg/kg): 145±23
Zahl der Impulse im Aktometer innerhalb von 30 min (Ratten [3]; day 120, 75 mg/kg): 118±28
Zahl der Impulse im Aktometer innerhalb von 30 min (Ratten [3]; day 120, 200 mg/kg): 71±13
Zahl der Impulse im Aktometer innerhalb von 30 min (Ratten [3]; day 138, 25 mg/kg): 168±32
Zahl der Impulse im Aktometer innerhalb von 30 min (Ratten [3]; day 138, 75 mg/kg): 169±31
Zahl der Impulse im Aktometer innerhalb von 30 min (Ratten [3]; day 138, 200 mg/kg): 103±13
Zahl der Impulse im Aktometer innerhalb von 30 min (Ratten [3]; day 154, 25 mg/kg): 127±17
Zahl der Impulse im Aktometer innerhalb von 30 min (Ratten [3]; day 154, 75 mg/kg): 181±31
Zahl der Impulse im Aktometer innerhalb von 30 min (Ratten [3]; day 154, 200 mg/kg): 85±24
Zahl der Impulse im Aktometer innerhalb von 30 min (Ratten [3]; day 180, 25 mg/kg): 154±30
Zahl der Impulse im Aktometer innerhalb von 30 min (Ratten [3]; day 180, 75 mg/kg): 148±13
Zahl der Impulse im Aktometer innerhalb von 30 min (Ratten [3]; day 180, 200 mg/kg): 117±18
Schwimmzeit, Ratten (Ratten [4]): 8,2±0,5
Überlebensdauer nach der Einführung von Äthanol (Mäuse [5]; 50 mg/kg enteral chronic, 14 days + Äthylalkohol 11 ml/kg): 283,8±16 sec
Überlebensdauer nach der Einführung von Äthanol (Mäuse [5]; 50 mg/kg single + Äthylalkohol 11 ml/kg): 213,6±8 sec
Verlängerung der Überlebensdauer der Tiere (Mäuse [5]; chronic administration, ethanol intoxication): 30%
Zeit des Todeseintritts (Mäuse [6]; 50 mg/kg + Strophantin 1,7 mg/kg i.v.): 22,3 (8,9 - 35,6) min
Verlängerung der Zeit des Todeseintritts der Tiere (Mäuse [6]; 50 mg/kg, Strophantin): 2,5 fache
LD₅₀ (Mäuse [7]; into the stomach): 4600 mg/kg
LD₅₀ (Mäuse [7]; intravenous): 580 mg/kg
LD₅₀ (Ratten [8]): 883 mg/kg
Beständigkeit bei der Aufbewahrung [9]: beständig
